According to paper PMC12718081 (ACS Infectious Diseases, 2025):
“Also recorded” adds a separate entry of the source. Read-outs that look alike come from different tables or passages of the source.

Experiments:
S. mansoni schistosomula = experiment: Roboworm high-content screening assay on schistosomula (motility and phenotype scores); format: cell-based, Schistosoma mansoni; conditions: 72 h
Experimental: All PZQ derivatives were synthesized in the racemic form and evaluated as such. The compounds were initially screened at 10 μM against S. mansoni schistosomula using the Roboworm high-content screening assay , and were declared hits or nonhits based on their effect on parasites’ motility and phenotype scores after 72 h of incubation. As none of the compounds were considered hits at this concentration, we performed a titration from 6.25 to 50 μM (Figure S27).
DMSO was included as a negative control. Compounds were considered hits if both their motility and phenotype scores were lower than −0.35 and −0.15, respectively (region delimited by the dashed lines). In red, PZQ analogues selected for further analysis.
For the collection of schistosomula, B. glabrata snails infected with S. mansoni were shed for 2 h under light at 26 °C. Cercariae were collected, mechanically transformed into schistosomula as previously described.
DMSO (0.625%, v/v) was included as a negative control. Z′ values for the assay were calculated to be 0.542 for phenotype and 0.361 for motility. […]
(§1) Auranofin (AUR) was included at 10 µM as positive control. DMSO was included as a negative control. Compounds were considered hits if both their motility and phenotype scores were lower than -0.35 and -0.15, respectively (region delimited by the […]

Fh.TRPMPZQ = test system: Fh.TRPMPZQ; set-up: method as in number not given; conditions: background statement; ref number not given; cited from earlier work
S. mansoni = test system: S. mansoni; set-up: method as in numbers not given; conditions: ref numbers not given, cited from earlier work
Sm.TRPMMCLZ = test system: Sm.TRPMMCLZ; set-up: method as in number not given; conditions: background statement; ref number not given; cited from earlier work
juvenile schistosomes = experiment: Microscopy analysis of juvenile morphology and motility (viability score 0-3); conditions: 72 h
[1] = test system: juvenile schistosomes (21 days p.i.); experiment: XTT juvenile viability assay; format: cell-based, Schistosoma mansoni; conditions: 48 h
[2] = test system: adult schistosomes (male and female worms); experiment: Adult worm ex vivo high-content image-based motility assay; format: cell-based, Schistosoma mansoni
Experimental: Adult schistosomes’ motility was determined using a high-content assay previously developed by our group, , with images analyzed in CellProfiler software. More details are provided in the Supporting Information.
(§2) Adult worm ex-vivo high-content assay
(§3) “Area” and “False Negative Rate” from the MeasureObjectSizeShape and MeasureObjectOverlap modules, respectively. These measurements were then modeled by a multilevel generalized linear statistical model. The effects of the experimental treatments on […]
(§4) The half-maximal inhibitory
(§5) Windows (GraphPad Software, Boston, MA, USA; www.graphpad.com). […]
with DMSO as a negative control.

Sm.TRPMPZQ L1515A mutant = experiment: Ca2+ reporter activation assay, Sm.TRPMPZQ point mutant L1515A; format: cell-based, Schistosoma mansoni; conditions: 100 μM
Experimental: This trend likely indicates a similar binding mode.
The colored cells represent the range of EC50 values for each compound based on their ability to activate the channel.
(§6) The Ca^2+ reporter assay was performed using a Fluorescence Imaging Plate Reader (FLIPR) system, as described in the Supporting Information.
as §2, §3, §4, §5
(§7) with DMSO as a negative control. […]
(§8) reader. […] The fluorescence
(§9) Untransfected HEK293 cells were used as a control.
(§10) 10% fetal bovine serum (FBS). […]
(§11) atmosphere containing 5% CO₂. Following incubation, the growth medium was removed and […]
(§12) buffer containing 2.5 mM probenecid in HBSS (with Ca²⁺ and Mg²⁺), 20 mM HEPES, 0.3% BSA (Sigma, A7030), and 0.03% L-ascorbic acid (Sigma). Cells were incubated for 40 minutes at 37 °C and subsequently for 20 minutes at room temperature. […]
(§13) instrument (Molecular Devices). Baseline fluorescence was recorded for 20 seconds, followed by the addition of 5 µL of each drug solution, after which fluorescence was measured continuously for 250 seconds. […]

Sm.TRPMPZQ = experiment: Ca2+ reporter assay in antagonist mode (block of PZQ activation of Sm.TRPMPZQ); format: cell-based, Schistosoma mansoni; conditions: preincubation 1 nM-100 μM for 10 min, data not shown
Experimental: as §6, §2, §3, §4, §5, §7, §8, §9, §10, §11
buffer containing 2.5 mM probenecid in HBSS (with Ca²⁺ and Mg²⁺), 20 mM HEPES, 0.3% BSA (Sigma, A7030), and 0.03% L-ascorbic acid (Sigma). Cells were incubated for 40 minutes at 37 °C and subsequently for 20 minutes at room temperature. A total of seven PZQ derivatives were tested, using racemic PZQ included as a positive control on each assay plate. Drug dilutions were prepared in assay buffer without dye and probenecid and dispensed into separate flat-bottom 384-well plates. Calcium flux measurements were performed at room temperature using a […]
as §13
as §1, with “schistosomula after 72h of incubation using the Roboworm high-content screening assay. Auranofin” for “Auranofin”
(1 picture or pasted object on this page, not shown here)

Sm.TRPMPZQ (wild-type) = Sm.TRPMPZQ (wild-type) (Schistosoma mansoni, UniProt A0A5K4F0X5); experiment: Ca2+ reporter (FLIPR) activation assay, wild-type Sm.TRPMPZQ in HEK293 cells; format: cell-based
Chain of Sm.TRPMPZQ (wild-type) (A0A5K4F0X5 entry or part of it): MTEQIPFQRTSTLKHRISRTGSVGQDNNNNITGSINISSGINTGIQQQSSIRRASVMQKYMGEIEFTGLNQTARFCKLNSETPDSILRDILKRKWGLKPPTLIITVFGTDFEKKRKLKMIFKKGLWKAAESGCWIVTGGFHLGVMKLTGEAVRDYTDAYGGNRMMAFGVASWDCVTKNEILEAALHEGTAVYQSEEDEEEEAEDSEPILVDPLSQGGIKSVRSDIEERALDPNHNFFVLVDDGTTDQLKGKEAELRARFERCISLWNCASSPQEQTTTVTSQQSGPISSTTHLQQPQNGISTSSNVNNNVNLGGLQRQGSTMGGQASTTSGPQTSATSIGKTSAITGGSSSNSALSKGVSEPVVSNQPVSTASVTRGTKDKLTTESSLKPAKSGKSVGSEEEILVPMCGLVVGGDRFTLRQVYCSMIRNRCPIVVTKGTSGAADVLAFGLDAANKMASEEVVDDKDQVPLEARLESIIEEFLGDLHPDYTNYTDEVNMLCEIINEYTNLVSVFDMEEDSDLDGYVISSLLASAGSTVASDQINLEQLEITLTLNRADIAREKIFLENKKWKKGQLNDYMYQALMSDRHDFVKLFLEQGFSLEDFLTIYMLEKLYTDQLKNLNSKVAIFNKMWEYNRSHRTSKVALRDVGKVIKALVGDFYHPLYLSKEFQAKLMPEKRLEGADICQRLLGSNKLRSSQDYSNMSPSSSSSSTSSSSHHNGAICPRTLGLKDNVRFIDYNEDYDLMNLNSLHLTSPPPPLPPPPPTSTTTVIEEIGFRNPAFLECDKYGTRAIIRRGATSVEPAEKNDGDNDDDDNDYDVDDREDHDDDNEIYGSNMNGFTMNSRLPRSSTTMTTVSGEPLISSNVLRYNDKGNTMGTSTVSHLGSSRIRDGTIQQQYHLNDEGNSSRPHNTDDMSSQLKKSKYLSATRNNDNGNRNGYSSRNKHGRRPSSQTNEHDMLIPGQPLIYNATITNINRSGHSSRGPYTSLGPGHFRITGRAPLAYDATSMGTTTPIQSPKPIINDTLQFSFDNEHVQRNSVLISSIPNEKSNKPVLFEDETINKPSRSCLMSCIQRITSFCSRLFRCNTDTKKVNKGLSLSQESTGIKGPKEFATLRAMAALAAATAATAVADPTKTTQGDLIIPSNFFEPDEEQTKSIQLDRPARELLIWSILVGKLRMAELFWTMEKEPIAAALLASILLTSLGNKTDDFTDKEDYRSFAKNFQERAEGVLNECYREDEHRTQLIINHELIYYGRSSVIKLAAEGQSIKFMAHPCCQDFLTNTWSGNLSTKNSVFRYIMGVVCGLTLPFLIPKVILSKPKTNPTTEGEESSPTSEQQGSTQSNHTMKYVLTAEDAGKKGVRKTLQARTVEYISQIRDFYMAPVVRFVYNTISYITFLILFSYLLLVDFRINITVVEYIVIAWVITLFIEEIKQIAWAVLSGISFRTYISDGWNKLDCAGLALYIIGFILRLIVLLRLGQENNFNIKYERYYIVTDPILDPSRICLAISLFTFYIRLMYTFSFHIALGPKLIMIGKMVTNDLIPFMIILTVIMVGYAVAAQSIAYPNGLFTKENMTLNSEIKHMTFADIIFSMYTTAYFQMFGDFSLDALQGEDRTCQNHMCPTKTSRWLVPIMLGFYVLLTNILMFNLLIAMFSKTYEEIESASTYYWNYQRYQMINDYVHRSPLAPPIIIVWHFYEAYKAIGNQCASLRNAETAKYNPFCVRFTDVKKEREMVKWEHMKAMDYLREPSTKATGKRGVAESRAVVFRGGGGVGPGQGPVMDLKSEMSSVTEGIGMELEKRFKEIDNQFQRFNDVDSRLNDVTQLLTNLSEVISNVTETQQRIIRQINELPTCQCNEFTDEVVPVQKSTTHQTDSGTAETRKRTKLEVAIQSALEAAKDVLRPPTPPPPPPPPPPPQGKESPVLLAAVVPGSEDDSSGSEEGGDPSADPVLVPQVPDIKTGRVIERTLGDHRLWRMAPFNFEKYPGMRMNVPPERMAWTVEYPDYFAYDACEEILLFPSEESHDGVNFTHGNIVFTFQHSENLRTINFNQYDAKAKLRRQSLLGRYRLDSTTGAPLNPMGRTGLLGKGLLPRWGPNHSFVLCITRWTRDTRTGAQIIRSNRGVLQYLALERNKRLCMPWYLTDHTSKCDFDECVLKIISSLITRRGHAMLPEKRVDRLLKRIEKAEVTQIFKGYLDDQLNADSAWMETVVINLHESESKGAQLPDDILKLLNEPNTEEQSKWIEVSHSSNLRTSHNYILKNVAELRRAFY
Experimental: The Ca^2+ reporter assay was performed using a Fluorescence Imaging Plate Reader (FLIPR) system, as described in the Supporting Information. […]
as §4, §5, §7, §8, §9, §10, §11, §12
prepared in assay buffer without dye and probenecid and dispensed into separate flat-bottom 384-well plates. Calcium flux measurements were performed at room temperature using a […]
as §13

Eg.TRPMPZQ = Eg.TRPMPZQ (Echinococcus granulosus, UniProt W6UVV9); experiment: cell-based; conditions: HEK293, Ca2+ reporter, mean ± standard deviation; read-out: Bmax, Eg.TRPMPZQ activation
Chain of Eg.TRPMPZQ (W6UVV9 entry or part of it): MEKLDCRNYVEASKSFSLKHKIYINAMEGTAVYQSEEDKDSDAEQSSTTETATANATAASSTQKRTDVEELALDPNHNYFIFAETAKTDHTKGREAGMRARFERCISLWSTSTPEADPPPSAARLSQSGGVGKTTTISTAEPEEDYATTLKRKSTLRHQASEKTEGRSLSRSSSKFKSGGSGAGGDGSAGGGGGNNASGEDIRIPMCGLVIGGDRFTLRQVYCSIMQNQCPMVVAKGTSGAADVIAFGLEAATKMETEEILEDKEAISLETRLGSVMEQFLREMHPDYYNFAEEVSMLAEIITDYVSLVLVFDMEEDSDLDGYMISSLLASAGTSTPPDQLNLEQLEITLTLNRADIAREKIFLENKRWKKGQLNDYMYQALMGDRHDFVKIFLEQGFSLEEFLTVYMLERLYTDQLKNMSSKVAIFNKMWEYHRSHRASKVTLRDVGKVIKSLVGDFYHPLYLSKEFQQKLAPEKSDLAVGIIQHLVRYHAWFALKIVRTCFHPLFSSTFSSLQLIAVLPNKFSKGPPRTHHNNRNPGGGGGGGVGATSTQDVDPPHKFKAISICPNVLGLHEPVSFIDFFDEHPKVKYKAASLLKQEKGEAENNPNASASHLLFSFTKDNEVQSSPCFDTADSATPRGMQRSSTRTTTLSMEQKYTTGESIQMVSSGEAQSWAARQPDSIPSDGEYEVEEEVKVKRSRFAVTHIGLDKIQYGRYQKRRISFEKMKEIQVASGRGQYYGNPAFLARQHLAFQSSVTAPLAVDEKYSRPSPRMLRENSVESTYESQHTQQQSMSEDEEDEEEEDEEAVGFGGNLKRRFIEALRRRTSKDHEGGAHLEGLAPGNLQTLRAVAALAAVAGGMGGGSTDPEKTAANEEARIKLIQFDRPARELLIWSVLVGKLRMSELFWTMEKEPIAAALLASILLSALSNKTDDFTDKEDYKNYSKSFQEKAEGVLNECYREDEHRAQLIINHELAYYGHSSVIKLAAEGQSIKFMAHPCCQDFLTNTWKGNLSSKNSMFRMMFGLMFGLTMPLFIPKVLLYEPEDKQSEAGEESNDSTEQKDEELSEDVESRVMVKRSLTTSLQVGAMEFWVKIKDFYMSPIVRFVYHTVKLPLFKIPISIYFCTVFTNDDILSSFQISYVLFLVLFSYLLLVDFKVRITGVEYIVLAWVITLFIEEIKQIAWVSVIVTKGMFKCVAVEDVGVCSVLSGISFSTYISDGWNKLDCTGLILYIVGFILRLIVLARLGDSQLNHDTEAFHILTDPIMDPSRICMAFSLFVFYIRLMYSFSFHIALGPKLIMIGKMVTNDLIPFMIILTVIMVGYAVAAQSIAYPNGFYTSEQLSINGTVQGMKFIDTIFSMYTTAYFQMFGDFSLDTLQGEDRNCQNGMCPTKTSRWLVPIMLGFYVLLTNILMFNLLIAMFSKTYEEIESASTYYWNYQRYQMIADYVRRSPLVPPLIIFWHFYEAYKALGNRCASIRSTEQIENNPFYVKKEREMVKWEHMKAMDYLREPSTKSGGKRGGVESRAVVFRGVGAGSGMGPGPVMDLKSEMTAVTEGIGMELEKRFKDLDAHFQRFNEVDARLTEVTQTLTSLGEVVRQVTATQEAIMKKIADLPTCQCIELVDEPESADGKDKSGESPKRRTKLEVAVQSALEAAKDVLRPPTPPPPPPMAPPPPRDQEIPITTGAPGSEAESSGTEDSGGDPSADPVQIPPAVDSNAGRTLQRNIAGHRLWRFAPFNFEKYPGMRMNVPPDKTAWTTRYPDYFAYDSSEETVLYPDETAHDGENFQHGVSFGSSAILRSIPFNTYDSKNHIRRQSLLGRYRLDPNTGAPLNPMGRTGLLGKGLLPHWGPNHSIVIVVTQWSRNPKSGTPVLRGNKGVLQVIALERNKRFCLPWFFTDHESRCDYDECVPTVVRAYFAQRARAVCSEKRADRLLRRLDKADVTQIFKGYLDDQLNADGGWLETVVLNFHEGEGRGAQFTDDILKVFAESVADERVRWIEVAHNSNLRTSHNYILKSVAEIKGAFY

O=C(C1CCCCC1)N1CC(=O)N2CCc3ccccc3C2C1 (stereo not drawn) [PZQ, Praziquantel, reference compound]
hit classification (motility and phenotype scores) (S. mansoni schistosomula; 6.25 μM): not classified as a hit | activation of Fh.TRPMPZQ (Fh.TRPMPZQ): does not activate | in vitro potency against adult worms (S. mansoni; S. mansoni adults): 160 to 750 nM | in vitro potency against schistosomula (S. mansoni; S. mansoni schistosomula): 1300 to 4800 nM | activation of Sm.TRPMMCLZ (Sm.TRPMMCLZ): does not activate | number of juvenile worms with viability score 0 (juvenile schistosomes; 10 μM, Table S1): 56 | number of juvenile worms with viability score 1 (juvenile schistosomes; 10 μM, Table S1): 12 | number of juvenile worms with viability score 2 (juvenile schistosomes; 10 μM, Table S1): 27 | number of juvenile worms with viability score 3 (juvenile schistosomes; 10 μM, Table S1): 14 | viability at 10 µM (juvenile schistosomes; Schistosoma mansoni, read-out: Relative frequency of viability score 3): 12.8% | parasite metabolic activity compared to the DMSO control group (XTT) ([1]; 100 μM): significantly decreased | viability at 100 µM ([1]; Schistosoma mansoni, mean ± SD, read-out: juvenile worm viability (XTT, % residual viability)): 71.5% | EC50 ([2]; Schistosoma mansoni, 0 h, male adult worms, 0 h (immediately after addition), single experiment or geometric mean, read-out: Male worm motility inhibition (EC50)): 280 nM | EC50 ([2]; Schistosoma mansoni, 0 h, male, 0 h, individual experiments, read-out: Male worm motility inhibition (EC50), values of independent experiments): 300 nM | EC50 ([2]; Schistosoma mansoni, 24 h, male adult worms, 24 h, single experiment or geometric mean, read-out: Male worm motility inhibition (EC50)): 250 nM | EC50 ([2]; Schistosoma mansoni, 24 h, male, 24 h, individual experiments, read-out: Male worm motility inhibition (EC50), values of independent experiments): 220 nM | EC50 ([2]; Schistosoma mansoni, 48 h, male adult worms, 48 h, single experiment or geometric mean, read-out: Male worm motility inhibition (EC50)): 250 nM | EC50 ([2]; Schistosoma mansoni, 48 h, male, 48 h, individual experiments, read-out: Male worm motility inhibition (EC50), values of independent experiments): 270 nM | EC50 ([2]; Schistosoma mansoni, 72 h, male adult worms, 72 h, single experiment or geometric mean, read-out: Male worm motility inhibition (EC50)): 160 nM | EC50 ([2]; Schistosoma mansoni, 72 h, male, 72 h, individual experiments, read-out: Male worm motility inhibition (EC50), values of independent experiments): 160 nM | EC50 ([2]; Schistosoma mansoni, male, 0-72 h, read-out: EC50 against male adult worms (motility), span over incubation times): ~200 nM | EC50 ([2]; male, 48 h, individual experiments, listed as PZQ (1), read-out: Male worm motility inhibition (EC50), values of independent experiments): 240 nM | EC50 ([2]; male, 72 h, individual experiments, listed as PZQ (1), read-out: Male worm motility inhibition (EC50), values of independent experiments): 170 nM

O=C(C1CCCCC1)N1CC(=O)N2CCc3ccc(-n4cc(C5(O)CCCCC5)nn4)cc3C2C1 (stereo not drawn) [Compound 5d]
hit classification (motility and phenotype scores) (S. mansoni schistosomula; 50 μM, hit if motility < -0.35 and phenotype < -0.15): inactive | activation of Sm.TRPMPZQ mutant form L1515A (Sm.TRPMPZQ L1515A mutant): activated | block of PZQ activation of Sm.TRPMPZQ (antagonist mode) (Sm.TRPMPZQ): failed to impact subsequent responses to PZQ | Bmax, wild-type Sm.TRPMPZQ activation (Sm.TRPMPZQ (wild-type)): No activity | EC50 for wild-type Sm.TRPMPZQ activation (Sm.TRPMPZQ (wild-type); 0.001 to 100 μM): failed to activate; also recorded: No activity | Emax (Eg.TRPMPZQ): 94 ± 4.08% | activity against adult worms ([2]; data not shown): inactive
